# Source: US20240299356A1, “DEVELOPMENT OF PRMT-TARGETING THERAPY TO ENHANCE EGFR-TARGETING DRUG EFFICACY IN NSCLC” (The Regents of the University of California, priority 2021, published 2024)
# Experiments:
# Assay type in all cases: cell-based
# PABP2 = PABP2 arginine methylation by mass spectrometry; conditions: mass spectrometry (FIGS. 2G, 5P, 5Q)
# Description: (§1) FIG. 2A is a line graph showing that knockout of STAT1 by CRISPR blocked IFNγ-induced change of drug-tolerant subpopulation size. […] FIG. 2D is a line graph showing homozygous knockout of STAT1 by CRISPR (tolerance model: PC9 treated with 2.5 μM erlotinib). […] Relative intensities were measured from by mass spectrometry experiments. FIG. 2H is a diagram of STAT1-mediated drug tolerance and type I PRMT vulnerability to eliminate drug tolerance.
# (§2) FIG. 5C is a line graph showing that STAT1 modulated cancer drug tolerance, and knockdown of STAT1 by siRNA blocked IFNγ-induced change of drug-tolerant subpopulation size. […] FIG. 5E is a bar graph showing that cancer drug treatment (EGFR drugs and other cytotoxic stressors) enhanced STAT1 expression across multiple cell lines. […] Tolerance model for FIG. 5G: PC9 treated with 2.5 μM erlotinib. FIG. 5H presents exemplary data showing differential gene expression in erlotinib-tolerant PC9 cells comparing to parental cells. The top panel of FIG. 5H is a volcano plot in which IRDS genes are shown in black. The bottom panel of FIG. 5H is a line graph showing the accumulative distribution of adjusted p-values of IRDS genes (gray) versus all genes excluding IRDS genes (black). FIG. 5I is a line graph showing the knockdown of STAT1 by siRNA. […] Relative intensities were measured from by mass spectrometry experiments. […]
# STAT1 = STAT1 protein expression (Western blot)
# Description: as §1
# FIG. 5C is a line graph showing that STAT1 modulated cancer drug tolerance, and knockdown of STAT1 by siRNA blocked IFNγ-induced change of drug-tolerant subpopulation size. […] FIG. 5E is a bar graph showing that cancer drug treatment (EGFR drugs and other cytotoxic stressors) enhanced STAT1 expression across multiple cell lines. […] Tolerance model for FIG. 5G: PC9 treated with 2.5 μM erlotinib. FIG. 5H presents exemplary data showing differential gene expression in erlotinib-tolerant PC9 cells comparing to parental cells. The top panel of FIG. 5H is a volcano plot in which IRDS genes are shown in black. The bottom panel of FIG. 5H is a line graph showing the accumulative distribution of adjusted p-values of IRDS genes (gray) versus all genes excluding IRDS genes (black). FIG. 5I is a line graph showing the knockdown of STAT1 by siRNA. FIG. 5J is a line graph showing the homozygous knockout of STAT1 by CRISPR. Tolerance model for FIGS. 5I and 5J: PC9 treated with 2.5 μM erlotinib. […] PC9 cells were pretreated with MS023 for one day, followed by co-treatment of erlotinib, and perturbations of protein synthesis or degradation for 16 hours. Cycloheximide (CHX): protein synthesis inhibitor. Bortezomib (Bort): proteasome inhibitor. Ammonium chloride (NH4Cl)): lysosomal function inhibitor. […] FIG. 5P is a bar graph showing type I PRMTs methylate PABP2 at multiple arginine residues. Relative intensities were measured from by mass spectrometry experiments.
# What is the connection between type I PRMTs and IFNγ signaling-modulated drug tolerance? […] Previous work in other systems identified STAT1 or its regulator PIAS1 as direct substrates of type I PRMTs^27, though we could not find evidence for their arginine methylation in our system (data not shown).
# lung cancer cell lines = assay: Drug tolerance in lung cancer cell models
# Description: FIGS. 3A-3D present exemplary data showing that Type I PRMT inhibition enhanced cancer drug efficacy. […] FIGS. 3B-3D present data showing the correlation between endogenous STAT1 expression levels and the efficacy of type I PRMT inhibition. […] Gray dots indicate cell lines that were tested for the efficacies of type I PRMT inhibition (by MS023).
# (§3) Can type I PRMT inhibition provide a general strategy for reducing drug tolerance and enhance efficacies of SOC drugs? STAT1 signaling can be activated by various sources in tumors, including interferon (IFN)-producing immune cells in the tumor microenvironment, endogenous nucleic acids, and cancer therapeutics (FIG. 2H)^31. […] We also observed efficacy of MS023 with gemcitabine in various pancreatic cancer cell lines (FIG. 6A).
# PC9 [1] = assay: Emergence of drug-tolerant persisters, two-month co-treatment with erlotinib; conditions: IFNγ stimulation, PC9, 2.5 μM erlotinib (FIG. 1F)
# Source text: (§4) FIGS. 1A-1F present exemplary data showing that Type I PRMT inhibition reduced IFNγ signaling-modulated drug tolerance. FIG. 1A present a three-step approach aimed at investigating drug tolerance. FIG. 1B is a line graph showing PC9 cell viabilities under six-day treatment of various doses of erlotinib in the context of IFNγ. […] FIG. 1E is a line graph showing that inhibition of type I PRMTs by MS023 reduced cancer drug tolerance specifically in the IFNγ/STAT1 activation context (normalized to DMSO controls in corresponding IFNγ contexts). Tolerance model for FIG. 1E: PC9 treated with 2.5 μM erlotinib for six days. […] Tolerance model: PC9 treated with 2.5 μM erlotinib.
# Third, we searched for perturbations that reduce IFNγ-stimulated drug tolerance within a collection of compounds of known biological functions and targets. […] Thus, type I PRMT inhibition is a vulnerability of IFNγ signaling-stimulated drug tolerance.
# PD-L1 [2] = assay: PD-L1 expression in MIAPACA2; conditions: pancreatic cancer cell MIAPACA2 (FIG. 12B)
# STAT1 mRNA = STAT1 mRNA level; conditions: FIG. 5M
# Description: FIG. 5C is a line graph showing that STAT1 modulated cancer drug tolerance, and knockdown of STAT1 by siRNA blocked IFNγ-induced change of drug-tolerant subpopulation size. […] FIG. 5E is a bar graph showing that cancer drug treatment (EGFR drugs and other cytotoxic stressors) enhanced STAT1 expression across multiple cell lines. […] Tolerance model for FIG. 5G: PC9 treated with 2.5 μM erlotinib. FIG. 5H presents exemplary data showing differential gene expression in erlotinib-tolerant PC9 cells comparing to parental cells. The top panel of FIG. 5H is a volcano plot in which IRDS genes are shown in black. The bottom panel of FIG. 5H is a line graph showing the accumulative distribution of adjusted p-values of IRDS genes (gray) versus all genes excluding IRDS genes (black). FIG. 5I is a line graph showing the knockdown of STAT1 by siRNA. FIG. 5J is a line graph showing the homozygous knockout of STAT1 by CRISPR. Tolerance model for FIGS. 5I and 5J: PC9 treated with 2.5 μM erlotinib. […] PC9 cells were pretreated with MS023 for one day, followed by co-treatment of erlotinib, and perturbations of protein synthesis or degradation for 16 hours. Cycloheximide (CHX): protein synthesis inhibitor. Bortezomib (Bort): proteasome inhibitor. Ammonium chloride (NH4Cl)): lysosomal function inhibitor. […] Relative intensities were measured from by mass spectrometry experiments. […]
# PD-L1 [3] = assay: PD-L1 expression in MGH119; conditions: lung cancer cell MGH119 (FIG. 12A)
# [4] = tested on: PC9 STAT1 knockdown / homozygous knockout cells; assay: Drug tolerance assay in PC9 with STAT1 knockdown or knockout; conditions: PC9 treated with 2.5 μM erlotinib
# Description: as §1, §2
# PC9 [5] = assay: Drug tolerance assay: surviving fraction of PC9 cells under continuous erlotinib
# Source text: as §4
# FIGS. 4A-4F present exemplary data showing that Type I PRMT inhibition reduces IFNγ signaling-modulated drug tolerance. FIG. 4A is a line graph showing the pro-survival effects of IFNγ in a variety of cell types with the cytotoxic inducers. Six-day tolerance assay in lung cancer cells was performed under 2.5 μM erlotinib or 50 μM carboplatin. FIG. 4B is a line graph showing PC9 cells co-treated with IFNγ and cytotoxic stressors (EGFR inhibitor Gefitinib, PARP inhibitor olaparib, death ligand TRAIL, procaspase-3 activator PAC-1), and cell viabilities were measured by Cell TiterGlo after six days. FIG. 4C is a bar-graph showing PRMT1 knockdown efficiency measured by qPCR after two days of siRNA transfection. FIG. 4D is a line graph showing that inhibition of type I PRMTs by MS023 reduced cancer drug tolerance specifically in the IFNγ/STAT1 activation context (normalized to DMSO control in (−) IFNγ context). Tolerance model for FIG. 4D: PC9 treated with 2.5 μM erlotinib for six days. FIG. 4E is a line graph showing that inhibition of type I PRMTs by GSK3368715 reduced cancer drug tolerance specifically in the IFNγ/STAT1 activation context (normalized to DMSO controls in corresponding IFNγ contexts). FIG. 4F is a line graph line graphs showing that inhibition of type I PRMTs by GSK3368715 reduced cancer drug tolerance specifically in the IFNγ/STAT1 activation context (normalized to DMSO control in (−) IFNγ context). Tolerance model for FIGS. 4E and 4F: PC9 treated with 2.5 μM erlotinib for six days.
# To investigate drug tolerance, we undertook a three-step approach (FIG. 1A). First, we established reproducible assays to monitor small subpopulations of cancer cells that survive sustained SOC drug treatment. We initially selected the well-established drug-tolerance model provided by the EGFR-mutant lung cancer cell line PC9 and EGFR inhibitor erlotinib^1,2,6. The effect of perturbations to drug tolerance was assessed by quantifying changes to the fraction of the small subpopulation of surviving (drug-tolerant) cells after approximately one week of continuous drug treatment.
# [6] = tested on: solid tumors with wild type splicing factors (e.g. SRSF2, SF3B1, U2AF1); assay: Proliferation of solid tumors with wild type splicing factors; conditions: FIG. 9
# [7] = tested on: pancreatic cancer cell lines; assay: Drug tolerance in gemcitabine-treated pancreatic cancer cell lines; conditions: FIG. 6A
# Source text: FIGS. 6A-6E present exemplary data showing that Type I PRMT inhibition enhances cancer drug efficacy.
# as §3
# [8] = tested on: AKT, ERK and STAT3 pathway; assay: EGFR bypass signaling (AKT, ERK and STAT3 pathway); conditions: FIG. 5A
molecule,measurement,setting,value
CC(C)Oc1ccc(-c2c[nH]cc2CN(C)CCN)cc1 [MS023],dimethylation of PABP2 arginine residues,PABP2,reduced the detected dimethylation of PABP2
same,mechanism of the reduction of STAT1 expression,"STAT1; PC9 pretreated one day, then erlotinib plus cycloheximide, bortezomib or NH4Cl for 16 hours (FIG. 5N)",alteration in protein synthesis
same,total STAT1 protein level,"STAT1; independent of IFNγ or erlotinib, multiple cancer cell lines (FIGS. 2E, 5K, 5L)",downregulated total STAT1 protein level
same,drug tolerance in osimertinib-treated lung cancers,"lung cancer cell lines; EGFR mutant cell lines with T790M resistance mutation, IFNγ stimulation (FIG. 3A middle)",reduced drug tolerance
same,drug tolerance in carboplatin-treated lung cancers,"lung cancer cell lines; EGFR wild type cell lines, IFNγ stimulation (FIG. 3A bottom)",reduced drug tolerance
same,IC50 on reducing drug tolerance,"lung cancer cell lines; lung (erlotinib, osimertinib, carboplatin) and pancreatic (gemcitabine) cancer cell models, IFNγ stimulation",sub- to low-micromolar range
same,drug tolerance in erlotinib-treated lung cancers,"lung cancer cell lines; multiple EGFR mutant cell lines, IFNγ stimulation (FIG. 3A top)",reduced drug tolerance
same,expansion of drug-tolerant cells (persisters),PC9 [1],durably reduced the expansion of drug-tolerant cells
same,expression of immune checkpoint protein PD-L1,PD-L1 [2],reduced the expression
same,STAT1 mRNA,STAT1 mRNA,did not reduce STAT1 mRNA
same,expression of immune checkpoint protein PD-L1,PD-L1 [3],reduced the expression
same,efficacy on drug tolerance in STAT1 homozygous knockout cells,"[4]; CRISPR STAT1 knockout (FIGS. 2D, 5J)",no efficacy
same,efficacy on drug tolerance after STAT1 knockdown,[4]; STAT1 siRNA (FIG. 5I),dramatically compromised
same,"effect on reducing drug tolerance, dependence on IFNγ","PC9 [5]; PC9 treated with 2.5 μM erlotinib for six days, with or without IFNγ (FIGS. 1E, 4D-4F)",only observed in the presence of IFNγ stimulation
same,drug tolerance in the PC9/erlotinib model system,PC9 [5]; across a wide range of IFNγ concentrations (FIG. 1C),reduced drug tolerance
same,proliferation,[6],reduced the proliferation
same,drug tolerance in gemcitabine-treated pancreatic cancers,[7],reduced drug tolerance
C#Cc1cccc(Nc2ncnc3cc(OCCOC)c(OCCOC)cc23)c1 [erlotinib],total STAT1 as opposed to P-STAT1,"STAT1; combined with IFNγ, PC9 cells (FIG. 5D)",synergizes with IFNγ to increase total STAT1
"IFNγ: dimerized soluble cytokine, the only member of the type II class of interferons (protein, UniProt P01579 24-161, looked up) Interferon gamma: QDPYVKEAENLKKYFNAGHSDVADNGTLFLGILKNWKEESDRKIMQSQIVSFYFKLFKNFKDDQSIQKSVETIKEDMNVKFFNSNKKKRDDFEKLTNYSVTDLNVQRKAIHELIQVMAELSPAAKTGKRKRSQMLFRG","STAT1 signaling (phosphorylation of STAT1, IRF1 transcription, STAT1 upregulation)",STAT1; PC9-erlotinib model system (FIG. 5B),activates STAT1 signaling
same,reactivation of major EGFR bypass signaling,[8],did not observe the reactivation
same,drug tolerance at relatively low doses,"PC9 [5]; PC9/erlotinib and other models of tolerance (FIGS. 1B, 4A, 4B)",increase tolerance
same,drug tolerance at relatively high doses,"PC9 [5]; PC9/erlotinib, six-day treatment (FIG. 1B)",decreases drug tolerance
